# Experiments:
# [1] = Stability in mouse plasma, peptides 10 uM (Example 15); assay type: in vitro ADME; settings: mouse plasma 37° C., peptide 10 uM
# Description: (§1) Peptides (10 uM) were incubated in pooled mouse plasma at 37° C. and samples were removed and immediately analyzed for the concentration of intact peptide by LC/MS/MS over the course of 3 hours. The percent of peptide remaining in plasma at each time point was calculated relative to the initial peak area (Table 13).
# [2] = system: Diet Induced Obese (DIO) mice; assay: Body weight, blood glucose and fat mass in Diet Induced Obese mice, 10 days (Example 6); assay type: in vivo, Male C57BL/6 mice; settings: male DIO mice; 10 days twice daily intraperitoneal 15 mg/kg; N = 8; mean
# Description: Animals were randomized to treatment groups based on blood glucose levels and body weight. The peptides of the invention were administered to two groups of male DIG mice once or twice daily by subcutaneous or intraperitoneal injection at a dose of 15 mg/kg/dose for 10 days (N=8 animals per treatment group). An additional group of male DIG mice (n=8) received vehicle (water or saline) alone. Body weight, blood glucose levels and food intake were monitored. Body mass distribution (fat vs lean) was determined by quantitative whole body NMR prior to dosing and at the end of dosing.
# Human Primary Adipocytes [3] = assay: Free fatty acid levels in cultured human primary adipocytes, forskolin stimulated (Example 5); assay type: cell-based; settings: test peptides 25 μM; forskolin 1 μM
# Description: Human primary adipocytes were seeded at 5,000-100,000 cells per well on 96-well, 48-well, or 24-well plate in Pre-adipocyte Medium (Zen-Bio, Durham, N.C.) and grown to confluence at 37° C. in a humidified atmosphere of 5% CO2/95% air. Two days after confluence, cells were placed in Adipocyte Differentiation Medium (Zen-Bio, Durham, N.C.) and cultured for three additional days at 37° C. in a humidified atmosphere of 5% CO2/95% air. The culture media was then replaced with Adipocyte Maintenance Medium (Zen-Bio) and the cells were maintained for an additional 11-21 days at 37° C. in a humidified atmosphere of 5% CO2/95% air with partial medium replacement every other day. Following 14-24 days of differentiation, test peptides were added at a final concentration of 25 μM and incubated for 18-20 hours in Adipocyte Maintenance Medium at 37° C. in a humidified atmosphere of 5% CO2/95%. After 18-20 hours, the media was exchanged with fresh Adipocyte Maintenance Medium containing test peptides and incubated for 1 h at 37° C. in a humidified atmosphere of 5% CO2/95%. After 1 h media was exchanged with Assay Buffer (Zen-Bio) containing forskolin (1 μM) (added to all samples except untreated controls) and test peptides. Cells were incubated for a further 3 hours at 37° C. in a humidified atmosphere of 5% CO2/95%. Free fatty acid concentrations in the media were determined using a Free Fatty Acid Assay Kit (Zen-Bio) according to the manufacturer's instructions using a plate reader (540 nm). Absorbance values were corrected for untreated background and expressed relative to forskolin treated cells. Treatment with forskolin (1 μM) alone was used as the free fatty acid level stimulatory control. The relative standard deviation of the forskolin control was <20%. […] Free fatty acid levels for insulin (100 nM) treatment were <8% of the forskolin control value.
# Human Primary Adipocytes [4] = assay: Free fatty acid levels in cultured human primary adipocytes, isoproterenol stimulated (Example 4); assay type: cell-based; settings: test peptides 25 μM; isoproterenol 1 nM
# Description: Human primary adipocytes were seeded at 5,000-100,000 cells per well on 96-well, 48-well, or 24-well plates in Pre-adipocyte Medium (Zen-Bio, Durham, N.C.) and grown to confluence at 37° C. in a humidified atmosphere of 5% CO2/95% air. Two days after confluence, cells were placed in Adipocyte Differentiation Medium (Zen-Bio, Durham, N.C.) and cultured for three additional days at 37° C. in a humidified atmosphere of 5% CO2/95% air. The culture media was then replaced with Adipocyte Maintenance Medium (Zen-Bio) and the cells were maintained for an additional 11-21 days at 37° C. in a humidified atmosphere of 5% CO2/95% air with partial medium replacement every other day. Following 14-24 days of differentiation, test peptides were added at a final concentration of 25 μM and incubated for 18-20 hours in Adipocyte Maintenance Medium at 37° C. in a humidified atmosphere of 5% CO2/95%. After 18-20 hours, the media was exchanged with fresh Adipocyte Maintenance Medium containing test peptides and incubated for 1 h at 37° C. in a humidified atmosphere of 5% CO2/95%. After 1 h media was exchanged with Assay Buffer (Zen-Bio) containing isoproterenol (1 nM) (added to all samples except untreated controls) and test peptides. Cells were incubated for a further 3 hours at 37° C. in a humidified atmosphere of 5% CO2/95%. Free fatty acid concentrations in the media were determined using a Free Fatty Acid Assay Kit (Zen-Bio) according to the manufacturer's instructions using a plate reader (540 nm). Absorbance values were corrected for untreated background and expressed relative to isoproterenol treated cells. Treatment with isoproterenol (1 nM) alone was used as the free fatty acid level stimulatory control. The relative standard deviation of the isoproterenol control was <14%. […] Free fatty acid levels for insulin (100 nM) treatment were <5% of the isoproterenol control value.
# 3T3-L1 Adipocytes [5] = assay: Free fatty acid levels in cultured mouse 3T3-L1 adipocytes, isoproterenol stimulated (Example 2); assay type: cell-based; settings: test peptides 25 μM; isoproterenol 1 nM
# Outline: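 Release of free fatty acids, read at 540 nm, was stimulated with 1 nM isoproterenol for 3 h in mouse 3T3-L1 adipocytes (12–17 days of differentiation). Cells were pre-exposed to 25 μM peptide for 18–20 h plus 1 h, with peptide kept in during stimulation. Values are background-subtracted and normalised to isoproterenol alone.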
# [6] = Stability in mouse plasma, peptides 100 uM (Example 14); assay type: in vitro ADME; settings: mouse plasma 37° C., peptide 100 uM; for remaining at 0.25 h, 100 uM / remaining at 0.5 h, 100 uM / remaining at 1 h, 100 uM / remaining at 2 h, 100 uM / remaining at 3 h, 100 uM: pooled mouse plasma; for remaining at 0.25 h, 100 uM: 15 min, read-out: % Remaining at Each Time Point: 15 min; for remaining at 0.5 h, 100 uM: 30 min, read-out: % Remaining at Each Time Point: 30 min; for remaining at 1 h, 100 uM: 60 min, read-out: % Remaining at Each Time Point: 60 min; for remaining at 2 h, 100 uM: 120 min, read-out: % Remaining at Each Time Point: 120 min; for remaining at 3 h, 100 uM: 180 min, read-out: % Remaining at Each Time Point: 180 min
# Description: as §1, with “(100” for “(10”, “12).” for “13).”
# 3T3-L1 Adipocytes [7] = assay: Free fatty acid levels in cultured mouse 3T3-L1 adipocytes, forskolin stimulated (Example 3); assay type: cell-based; settings: test peptides 25 μM; forskolin 1 μM
# Description: Mouse 3T3-L1 cells were seeded at 1,000-20,000 cells per well on 96-well, 48-well, or 24-well plates in Pre-adipocyte Medium (Zen-Bio, Durham, N.C.) and grown to confluence at 37° C. in a humidified atmosphere of 5% CO2/95% air. Two days after confluence, cells were placed in Adipocyte Differentiation Medium (Zen-Bio, Durham, N.C.) and cultured for three additional days at 37° C. in a humidified atmosphere of 5% CO2/95% air. The culture media was then replaced with Adipocyte Maintenance Medium (Zen-Bio) and the cells were maintained for an additional 9-14 days at 37° C. in a humidified atmosphere of 5% CO2/95% air with partial medium replacement every other day. Following 12-17 days of differentiation, test peptides were added at a final concentration of 25 μM and incubated for 18-20 hours in Adipocyte Maintenance Medium at 37° C. in a humidified atmosphere of 5% CO2/95%. After 18-20 hours, the media was exchanged with fresh Adipocyte Maintenance Medium containing test peptides and incubated for 1 h at 37° C. in a humidified atmosphere of 5% CO2/95%. After 1 h media was exchanged with Assay Buffer (Zen-Bio) containing forskolin (1 μM) (added to all samples except untreated controls) and test peptides. Cells were incubated for a further 3 hours at 37° C. in a humidified atmosphere of 5% CO2/95%. Free fatty acid concentrations in the media were determined using a Free Fatty Acid Assay Kit (Zen-Bio) according to the manufacturer's instructions using a plate reader (540 nm). Absorbance values were corrected for untreated background and expressed relative to forskolin treated cells. Treatment with forskolin (1 μM) alone was used as the free fatty acid level stimulatory control. The relative standard deviation of the forskolin control was <10%. […] Free fatty acid levels for insulin (100 nM) treatment were <9% of the forskolin control value.
Substance,% Remaining at Each Time Point: 0 min ([1]; 0 min) [%],"remaining at 0.25 h, 10 uM ([1]; pooled mouse plasma, 15 min, read-out: % Remaining at Each Time Point: 15 min) [%]","remaining at 0.5 h, 10 uM ([1]; pooled mouse plasma, 30 min, read-out: % Remaining at Each Time Point: 30 min) [%]","remaining at 1 h, 10 uM ([1]; pooled mouse plasma, 60 min, read-out: % Remaining at Each Time Point: 60 min) [%]","remaining at 2 h, 10 uM ([1]; pooled mouse plasma, 120 min, read-out: % Remaining at Each Time Point: 120 min) [%]","remaining at 3 h, 10 uM ([1]; pooled mouse plasma, 180 min, read-out: % Remaining at Each Time Point: 180 min) [%]",Difference from Vehicle Control: Decrease from Baseline in Blood Glucose [2] [mg/dL],Difference from Vehicle Control: Decrease from Baseline in Body Weight (%) [2] [%],Difference from Vehicle Control: Decrease from Baseline in Fat Mass [2] [g],Free Fatty Acid Levels in Human Primary Adipocytes Expressed as a Percent of Forskolin Control: Percent of Control Value (Human Primary Adipocytes [3]) [%],Free Fatty Acid Levels in Human Primary Adipocytes Expressed as a Percent of Isoproterenol Control: Percent of Control Value (Human Primary Adipocytes [4]) [%],Free Fatty Acid Levels in 3T3-L1 Adipocytes Expressed as a Percent of Isoproterenol Control: Percent of Control Value (3T3-L1 Adipocytes [5]) [%],% Remaining at Each Time Point: 0 min [6] [%],"remaining at 0.25 h, 100 uM [6] [%]","remaining at 0.5 h, 100 uM [6] [%]","remaining at 1 h, 100 uM [6] [%]","remaining at 2 h, 100 uM [6] [%]","remaining at 3 h, 100 uM [6] [%]",Free Fatty Acid Levels in 3T3-L1 Adipocytes Expressed as a Percent of Forskolin Control: Percent of Control Value (3T3-L1 Adipocytes [7]) [%]
H-MRWQEMGYIFYPRKL-OH [compound 45],100,66.5,33,7.31,0,0,6.00,−2.01,-0.69,125,22.2,37.9,–,–,–,–,–,–,–
H-MRWQEMQYIFYPR-OH [compound 209],–,–,–,–,–,–,–,–,–,90.1,66.8,30.1,100,47.5,38.9,38,36.3,38.3,33.3
H-QEMGYIFYPRKLR-OH [compound 40],–,–,–,–,–,–,–,–,–,107,122,83.1,–,–,–,–,–,–,96.1
H-WQEMGYIFYPRKLR-OH [compound 39],–,–,–,–,–,–,–,–,–,80.8,22.2,84.3,100,39.5,38.8,54.9,24,16.3,114

# From patent US11753445B2, “Therapeutic peptides” (COHBAR, INC., priority 2016, dated 2023)
